In the supplement of paper PMC10883282:
± gives the standard deviation of the averaged measurements.

Assays:
Assay in all cases: relative viability vs DMSO control (72 h) (fraction); higher = more viable cells
HS729 = test system: HS729
Summary of the method: (§1)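 Densities for seeding sarcoma cell lines into 384-well plates were set to give 80–90% confluence. After 24 h, 2.5 µl of serially diluted compound from source plates of 10 mM to 0.0002 mM went in, and plates stayed 72 h at 37 °C in 5% CO2 with 0.1% DMSO vehicle and a 5 µM positive control. Percent growth from ATPLite readings, averaged over up to triplicate wells, served as relative viability, rescaled so 1 means full and 0 means none.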

SK-ES-1 = test system: SK-ES-1
Summary of the method: as §1

A204 = test system: A204
Summary of the method: as §1

SYO-1 = test system: SYO-1
Summary of the method: as §1

RD = test system: RD
Summary of the method: as §1

KHOS-NP = test system: KHOS-NP
Summary of the method: as §1

SW684 = test system: SW684
Summary of the method: as §1

G401 = test system: G401
Summary of the method: as §1

VA-ES-BJ = test system: VA-ES-BJ
Summary of the method: as §1

SW872 = test system: SW872
Summary of the method: as §1

MES-SA = test system: MES-SA
Summary of the method: as §1

SK-LMS-1 = test system: SK-LMS-1
Summary of the method: as §1

CCN(CC)CCNC(=O)c1c(C)[nH]c(/C=C2\C(=O)Nc3ccc(F)cc32)c1C [Sunitinib]
Conditions	relative viability
A204, 0.00017 µM	1.06 ± 0.052
A204, 0.00051 µM	1.03 ± 0.073
A204, 0.00152 µM	1.01 ± 0.043
A204, 0.00457 µM	0.96 ± 0.035
A204, 0.01372 µM	0.795 ± 0.026
A204, 0.04115 µM	0.516 ± 0.043
A204, 0.1235 µM	0.425 ± 0.046
A204, 0.3704 µM	0.363 ± 0.031
A204, 1.111 µM	0.318 ± 0.017
A204, 3.333 µM	0.206 ± 0.01
A204, 10 µM	0.00297 ± 0.0012
G401, 0.00017 µM	1.01 ± 0.0098
G401, 0.00051 µM	0.984 ± 0.014
G401, 0.00152 µM	0.982 ± 0.013
G401, 0.00457 µM	0.99 ± 0.017
G401, 0.01372 µM	0.999 ± 0.023
G401, 0.04115 µM	0.996 ± 0.01
G401, 0.1235 µM	0.959 ± 0.0094
G401, 0.3704 µM	0.98 ± 0.068
G401, 1.111 µM	0.892 ± 0.032
G401, 3.333 µM	0.628 ± 0.036
G401, 10 µM	0.00473 ± 0.00025
HS729, 0.00017 µM	0.928 ± 0.021
HS729, 0.00051 µM	0.877 ± 0.036
HS729, 0.00152 µM	0.835 ± 0.021
HS729, 0.00457 µM	0.819 ± 0.045
HS729, 0.01372 µM	0.799 ± 0.01
HS729, 0.04115 µM	0.761 ± 0.061
HS729, 0.1235 µM	0.731 ± 0.053
HS729, 0.3704 µM	0.68 ± 0.024
HS729, 1.111 µM	0.518 ± 0.022
HS729, 3.333 µM	0.268 ± 0.012
HS729, 10 µM	0.0045 ± 0.00087
KHOS-NP, 0.00017 µM	1.04 ± 0.024
KHOS-NP, 0.00051 µM	1.06 ± 0.018
KHOS-NP, 0.00152 µM	1.05 ± 0.014
KHOS-NP, 0.00457 µM	1.05 ± 0.022
KHOS-NP, 0.01372 µM	1.06 ± 0.017
KHOS-NP, 0.04115 µM	1.047 ± 0.0075
KHOS-NP, 0.1235 µM	1.069 ± 0.0048
KHOS-NP, 0.3704 µM	1.065 ± 0.0084
KHOS-NP, 1.111 µM	0.973 ± 0.05
KHOS-NP, 3.333 µM	0.381 ± 0.062
KHOS-NP, 10 µM	0.0257 ± 0.0036
MES-SA, 0.00017 µM	0.911 ± 0.02
MES-SA, 0.00051 µM	0.927 ± 0.056
MES-SA, 0.00152 µM	0.95 ± 0.032
MES-SA, 0.00457 µM	0.917 ± 0.046
MES-SA, 0.01372 µM	0.929 ± 0.011
MES-SA, 0.04115 µM	0.905 ± 0.018
MES-SA, 0.1235 µM	0.917 ± 0.036
MES-SA, 0.3704 µM	0.83 ± 0.05
MES-SA, 1.111 µM	0.578 ± 0.023
MES-SA, 3.333 µM	0.305 ± 0.024
MES-SA, 10 µM	-0.00247 ± 0.0005
RD, 0.00017 µM	1.11 ± 0.054
RD, 0.00051 µM	1.11 ± 0.059
RD, 0.00152 µM	1.13 ± 0.05
RD, 0.00457 µM	1.13 ± 0.043
RD, 0.01372 µM	1.12 ± 0.065
RD, 0.04115 µM	1.11 ± 0.045
RD, 0.1235 µM	1.14 ± 0.066
RD, 0.3704 µM	1.1 ± 0.043
RD, 1.111 µM	0.958 ± 0.019
RD, 3.333 µM	0.0418 ± 0.00087
RD, 10 µM	0.00227 ± 0.00078
SK-ES-1, 0.00017 µM	0.997 ± 0.022
SK-ES-1, 0.00051 µM	0.996 ± 0.05
SK-ES-1, 0.00152 µM	1.08 ± 0.037
SK-ES-1, 0.00457 µM	1.04 ± 0.024
SK-ES-1, 0.01372 µM	1.02 ± 0.021
SK-ES-1, 0.04115 µM	0.97 ± 0.014
SK-ES-1, 0.1235 µM	0.931 ± 0.019
SK-ES-1, 0.3704 µM	0.578 ± 0.03
SK-ES-1, 1.111 µM	0.215 ± 0.0073
SK-ES-1, 3.333 µM	0.018 ± 0.0024
SK-ES-1, 10 µM	0.0034 ± 0.00035
SK-LMS-1, 0.00017 µM	1.11 ± 0.036
SK-LMS-1, 0.00051 µM	1.13 ± 0.04
SK-LMS-1, 0.00152 µM	1.08 ± 0.041
SK-LMS-1, 0.00457 µM	1.07 ± 0.038
SK-LMS-1, 0.01372 µM	1.12 ± 0.026
SK-LMS-1, 0.04115 µM	1.1 ± 0.016
SK-LMS-1, 0.1235 µM	1.09 ± 0.015
SK-LMS-1, 0.3704 µM	1.02 ± 0.011
SK-LMS-1, 1.111 µM	0.884 ± 0.041
SK-LMS-1, 3.333 µM	0.706 ± 0.025
SK-LMS-1, 10 µM	0.0084 ± 0.00053
SW684, 0.00017 µM	1.17 ± 0.031
SW684, 0.00051 µM	1.16 ± 0.023
SW684, 0.00152 µM	1.18 ± 0.019
SW684, 0.00457 µM	1.15 ± 0.035
SW684, 0.01372 µM	1.144 ± 0.0071
SW684, 0.04115 µM	1.17 ± 0.063
SW684, 0.1235 µM	1.181 ± 0.0061
SW684, 0.3704 µM	1.07 ± 0.04
SW684, 1.111 µM	0.871 ± 0.019
SW684, 3.333 µM	0.609 ± 0.029
SW684, 10 µM	0.001 ± 0.0098
SW872, 0.00017 µM	1.04 ± 0.051
SW872, 0.00051 µM	1.05 ± 0.048
SW872, 0.00152 µM	1.03 ± 0.029
SW872, 0.00457 µM	1.03 ± 0.04
SW872, 0.01372 µM	1.04 ± 0.097
SW872, 0.04115 µM	1.02 ± 0.1
SW872, 0.1235 µM	0.993 ± 0.11
SW872, 0.3704 µM	0.81 ± 0.038
SW872, 1.111 µM	0.587 ± 0.033
SW872, 3.333 µM	0.416 ± 0.035
SW872, 10 µM	-0.00493 ± 0.0014
SYO-1, 0.00017 µM	0.952 ± 0.013
SYO-1, 0.00051 µM	0.9234 ± 0.0033
SYO-1, 0.00152 µM	0.886 ± 0.025
SYO-1, 0.00457 µM	0.813 ± 0.034
SYO-1, 0.01372 µM	0.706 ± 0.069
SYO-1, 0.04115 µM	0.665 ± 0.057
SYO-1, 0.1235 µM	0.601 ± 0.038
SYO-1, 0.3704 µM	0.494 ± 0.077
SYO-1, 1.111 µM	0.406 ± 0.079
SYO-1, 3.333 µM	-0.00767 ± 0.0015
SYO-1, 10 µM	-0.00903 ± 0.0015
VA-ES-BJ, 0.00017 µM	1.04 ± 0.021
VA-ES-BJ, 0.00051 µM	1.03 ± 0.011
VA-ES-BJ, 0.00152 µM	1.04 ± 0.026
VA-ES-BJ, 0.00457 µM	1.04 ± 0.018
VA-ES-BJ, 0.01372 µM	1.05 ± 0.023
VA-ES-BJ, 0.04115 µM	1.045 ± 0.0085
VA-ES-BJ, 0.1235 µM	1.014 ± 0.01
VA-ES-BJ, 0.3704 µM	0.962 ± 0.039
VA-ES-BJ, 1.111 µM	0.745 ± 0.021
VA-ES-BJ, 3.333 µM	0.597 ± 0.045
VA-ES-BJ, 10 µM	-0.00367 ± 0.0023
